Experimental data: US10508120B2, “TYK2 inhibitors and uses thereof” (Nimbus Lakshmi, Inc., priority 2017, dated 2019)

How the values were obtained:
[1] = target: JAK2/JAK2 homdimeric complex (Homo sapiens (Human), UniProt O60674); assay: GM-CSF Induced pSTAT5 in Human PBMC; format: cell-based; settings: GM-CSF 5 ng/mL for 20 minutes, pSTAT5 by MSD, read-out: PBMC_GMCSF_pSTAT5 IC50
Tyk2 kinase domain (DH1) = Tyk2 kinase domain (DH1) (Homo sapiens (Human), UniProt P29597); assay: Tyk2 Radioactive Kinase Assay; format: biochemical; settings: 10 μM compound, 10 μM ATP; for inhibition at 10 µM: read-out: Tyk2 JH1% Inhibition @ 10 μM
Tyk2 kinase domain (DH1), sequence (P29597 897-1176): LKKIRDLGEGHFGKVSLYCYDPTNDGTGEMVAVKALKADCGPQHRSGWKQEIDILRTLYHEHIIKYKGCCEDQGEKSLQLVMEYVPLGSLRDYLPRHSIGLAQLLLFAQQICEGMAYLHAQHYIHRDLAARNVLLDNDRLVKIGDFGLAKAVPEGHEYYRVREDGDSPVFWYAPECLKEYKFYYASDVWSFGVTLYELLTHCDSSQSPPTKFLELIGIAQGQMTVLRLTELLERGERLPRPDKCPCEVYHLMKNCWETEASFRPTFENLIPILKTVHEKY
How it was run: (§1)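 Compounds were tested at a single concentration of 10 μM in a radiometric kinase format against each isolated kinase domain. Activity is reported as percent inhibition at that concentration.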

JAK2 kinase domain (JH1) = JAK2 kinase domain (JH1) (Homo sapiens (Human), UniProt O60674); assay: JAK2 Radioactive Kinase Assay; format: biochemical; settings: 10 μM compound, 10 μM ATP; for inhibition at 10 µM: read-out: JAK2 JH1% Inhibition @ 10 μM
JAK2 kinase domain (JH1), sequence (O60674 849-1124): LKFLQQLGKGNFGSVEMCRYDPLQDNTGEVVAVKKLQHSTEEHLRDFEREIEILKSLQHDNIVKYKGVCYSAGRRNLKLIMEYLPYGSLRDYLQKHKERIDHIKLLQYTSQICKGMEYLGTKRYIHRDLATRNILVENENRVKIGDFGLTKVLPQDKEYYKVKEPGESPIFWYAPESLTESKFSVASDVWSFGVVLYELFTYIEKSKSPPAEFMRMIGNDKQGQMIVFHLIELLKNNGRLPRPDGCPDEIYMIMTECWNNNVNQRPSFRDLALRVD
How it was run: as §1

[2] = target: human TYK2 (JH2domain-pseudokinase) (Homo sapiens (Human), UniProt P29597); assay: TYK2 JH2 Domain Binding Assay (KINOMEscan)
human TYK2 (JH2domain-pseudokinase), sequence (P29597 556-888): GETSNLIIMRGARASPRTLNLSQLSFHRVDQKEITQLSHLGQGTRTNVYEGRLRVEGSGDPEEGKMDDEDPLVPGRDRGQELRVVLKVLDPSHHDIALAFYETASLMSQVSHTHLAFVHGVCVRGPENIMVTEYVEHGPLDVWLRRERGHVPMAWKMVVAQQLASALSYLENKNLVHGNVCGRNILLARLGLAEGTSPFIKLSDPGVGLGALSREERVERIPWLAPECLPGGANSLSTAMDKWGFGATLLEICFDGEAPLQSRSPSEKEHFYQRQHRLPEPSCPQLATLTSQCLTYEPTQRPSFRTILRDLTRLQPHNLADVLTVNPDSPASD
How it was run: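 Competition binding of an NFkB-DBD fusion of human TYK2 JH2 (G556–D888), expressed in HEK293 and used as crude extract at <0.1 nM, against immobilized ligand beads; 1 h at room temperature in PBS/Tween/DTT/BSA buffer, 0.9% DMSO.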

JAK2/JAK2 homdimeric complex, sequence (O60674 whole entry, the tested form may be a part): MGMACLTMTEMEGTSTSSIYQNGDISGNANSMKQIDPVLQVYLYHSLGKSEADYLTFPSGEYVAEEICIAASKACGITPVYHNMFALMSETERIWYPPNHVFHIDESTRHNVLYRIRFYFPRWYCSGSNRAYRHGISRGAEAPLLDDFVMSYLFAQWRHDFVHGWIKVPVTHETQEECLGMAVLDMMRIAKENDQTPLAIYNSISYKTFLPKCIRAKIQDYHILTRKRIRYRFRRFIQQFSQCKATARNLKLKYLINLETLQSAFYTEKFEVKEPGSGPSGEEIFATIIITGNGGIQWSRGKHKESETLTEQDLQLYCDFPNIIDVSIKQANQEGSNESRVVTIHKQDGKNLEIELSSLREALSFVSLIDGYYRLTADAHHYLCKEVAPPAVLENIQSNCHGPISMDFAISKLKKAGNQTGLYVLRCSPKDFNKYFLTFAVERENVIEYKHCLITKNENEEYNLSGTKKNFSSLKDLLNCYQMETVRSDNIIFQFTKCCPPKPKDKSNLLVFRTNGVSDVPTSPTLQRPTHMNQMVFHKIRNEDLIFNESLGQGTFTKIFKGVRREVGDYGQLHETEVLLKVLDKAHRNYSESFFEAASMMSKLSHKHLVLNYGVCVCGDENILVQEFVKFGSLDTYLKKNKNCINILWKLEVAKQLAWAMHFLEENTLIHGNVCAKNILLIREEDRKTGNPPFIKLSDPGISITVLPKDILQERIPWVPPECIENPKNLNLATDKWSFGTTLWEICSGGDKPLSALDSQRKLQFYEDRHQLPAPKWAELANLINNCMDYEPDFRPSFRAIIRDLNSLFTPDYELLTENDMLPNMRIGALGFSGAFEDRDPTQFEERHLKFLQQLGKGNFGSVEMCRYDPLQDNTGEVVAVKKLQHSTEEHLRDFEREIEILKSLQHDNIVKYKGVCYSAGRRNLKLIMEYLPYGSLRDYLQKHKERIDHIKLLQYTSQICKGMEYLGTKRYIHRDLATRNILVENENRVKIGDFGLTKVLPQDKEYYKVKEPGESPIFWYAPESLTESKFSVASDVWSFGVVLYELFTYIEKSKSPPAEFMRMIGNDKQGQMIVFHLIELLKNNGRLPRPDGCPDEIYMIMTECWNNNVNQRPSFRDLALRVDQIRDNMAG
JAK2/JAK2 homdimeric complex, sequence (P32927 17-897 partner): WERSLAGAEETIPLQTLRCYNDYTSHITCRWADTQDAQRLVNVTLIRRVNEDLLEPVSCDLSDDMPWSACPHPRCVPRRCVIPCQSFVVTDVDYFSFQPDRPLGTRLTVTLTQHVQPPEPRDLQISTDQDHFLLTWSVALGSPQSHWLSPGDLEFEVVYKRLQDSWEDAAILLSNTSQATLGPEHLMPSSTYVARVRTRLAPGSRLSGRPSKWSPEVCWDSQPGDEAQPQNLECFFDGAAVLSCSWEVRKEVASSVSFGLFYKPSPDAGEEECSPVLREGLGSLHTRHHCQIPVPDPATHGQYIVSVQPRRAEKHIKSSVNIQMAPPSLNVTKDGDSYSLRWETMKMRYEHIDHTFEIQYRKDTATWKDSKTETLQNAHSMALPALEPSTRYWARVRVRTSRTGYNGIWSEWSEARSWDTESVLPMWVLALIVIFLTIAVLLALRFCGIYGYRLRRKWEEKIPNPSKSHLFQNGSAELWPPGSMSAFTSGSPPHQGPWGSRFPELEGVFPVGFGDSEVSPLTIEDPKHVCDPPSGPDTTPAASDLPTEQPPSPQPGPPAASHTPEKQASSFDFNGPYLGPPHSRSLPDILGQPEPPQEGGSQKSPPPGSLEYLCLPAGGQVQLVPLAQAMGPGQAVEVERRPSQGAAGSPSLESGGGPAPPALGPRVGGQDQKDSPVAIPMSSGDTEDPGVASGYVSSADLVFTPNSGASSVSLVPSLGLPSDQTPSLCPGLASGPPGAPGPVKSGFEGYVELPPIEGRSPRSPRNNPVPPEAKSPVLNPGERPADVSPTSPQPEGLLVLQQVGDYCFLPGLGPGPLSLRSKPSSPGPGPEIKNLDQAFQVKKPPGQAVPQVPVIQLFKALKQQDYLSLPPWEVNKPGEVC

| Structure (SMILES) | IC50 [1] | inhibition at 10 µM (Tyk2 kinase domain (DH1)) | inhibition at 10 µM (JAK2 kinase domain (JH1)) | Kd [2] | other results |
| --- | --- | --- | --- | --- | --- |
| CNc1cc(Nc2cc(C)cc(C)c2)nc2c(C(=O)NC3CC3)cnn12 [I-1, N-cyclopropyl-5-((3,5-dimethylphenyl)amino)-7-(methylamino)pyrazolo[1,5-a]pyrimidine-3-carboxamide] | > 50000 nM | – | – | – | – |
| CNc1cc(Nc2cccnc2OC)nc2c(C(=O)NC3CC3)cnn12 [I-8] | > 50000 nM | – | – | – | – |
| CNc1cc(Nc2cccn(-c3ccc(F)cc3)c2=O)nc2c(C(=O)NC3CC3)cnn12 [I-107, N-cyclopropyl-5-((1-(4-fluorophenyl)-2-oo-1,2-dihydropyridin-3-yl)amino)-7-(methylamino)pyrazolo[1,5-a]pyrimidine-3-carboxamide] | > 2500 nM | – | – | – | – |
| CNc1cc(Nc2cccn(-c3ncccc3F)c2=O)nc2c(C(=O)NC3CC3)cnn12 [I-143] | > 50000 nM | – | – | – | – |
| [2H]C([2H])([2H])Oc1ncccc1Nc1cc(NC)n2ncc(C(=O)NC3CC3)c2n1 [I-175, N-cyclopropyl-5-((2-(methoxy-d3)pyridin-3-yl)amino)-7-(methylamino) pyrazolo[1,5-a]pyrimidine-3-carboxamide] | > 12500 nM | – | – | – | – |
| CNc1cc(Nc2cccn(-c3ccc(F)cn3)c2=O)nc2c(C(=O)N[C@@H]3CC[C@H]3OC)cnn12 [I-817] | > 2500 nM | – | – | – | – |
| CNc1cc(Nc2cccn(-c3cccnc3)c2=O)nc2c(C(=O)N[C@H]3CC[C@@H]3OC)cnn12 [I-864] | > 50000 nM | – | – | – | – |
| CNc1cc(Nc2cccn(-c3nc(C)co3)c2=O)nc2c(C(=O)N[C@H]3CC[C@@H]3OC)cnn12 [I-890] | > 12500 nM | – | – | – | – |
| CNc1cc(Nc2cccn(-c3cnc(C)o3)c2=O)nc2c(C(=O)N[C@@H]3CC[C@H]3OC)cnn12 [I-895] | > 50000 nM | – | – | – | – |
| CNc1cc(Nc2cccn(C(C)C)c2=O)nc2c(C(=O)N[C@@H]3CC[C@H]3OC)cnn12 [I-917] | > 50000 nM | – | – | – | – |
| CNc1cc(Nc2cccn([C@@H]3C[C@H]3F)c2=O)nc2c(C(=O)NCC3(CO)CC3)cnn12 [I-1122, 5-((1-((1R,2R)-2-fluorocyclopropyl)-2-oxo-1,2-dihydropyridin-3-yl)amino)-N-((1-(hydroxymethyl)cyclopropyl)methyl)-7-(methylamino)pyrazolo[1,5-a]pyrimidine-3-carboxamide] | – | < 50% | < 50% | 0.2 to 1 nM | – |
| CNc1cc(Nc2cccn([C@H]3CCC[C@@H](OC)C3)c2=O)nc2c(C(=O)N[C@@H]3CC[C@H]3O)cnn12 [I-1123] | – | < 50% | < 50% | < 0.2 nM | – |
| CNc1cc(Nc2cccn([C@H]3CCC[C@@H](OC)C3)c2=O)nc2c(C(=O)N[C@H]3CC[C@@H]3O)cnn12 [I-1124] | – | < 50% | < 50% | < 0.2 nM | – |
| CNc1cc(Nc2cccn([C@H]3CCC[C@@H](OC)C3)c2=O)nc2c(C(=O)N[C@H]3CC[C@@H]3OC)cnn12 [I-1125] | – | < 50% | < 50% | > 10 nM | – |
| CNc1cc(Nc2cccn([C@H]3CCC[C@@H](OC)C3)c2=O)nc2c(C(=O)N[C@@H]3CC[C@H]3OC)cnn12 [I-1126] | – | < 50% | < 50% | < 0.2 nM | – |
| CNc1cc(Nc2cccn([C@@H]3CCCC[C@@H]3OC)c2=O)nc2c(C(=O)N[C@H]3CC[C@@H]3OC)cnn12 [I-1127] | – | – | – | > 10 nM | Tyk2 JH1% Inhibition @ 10 μM (Tyk2 kinase domain (DH1)): A (percent inhibition at 10 μM lower than 50); JAK2 JH1% Inhibition @ 10 μM (JAK2 kinase domain (JH1)): A (percent inhibition at 10 μM lower than 50) |
| CNc1cc(Nc2cccn([C@@H]3CCCC[C@@H]3OC)c2=O)nc2c(C(=O)N[C@@H]3CC[C@H]3OC)cnn12 [I-1128] | – | < 50% | < 50% | 1 to 10 nM | – |
| CNc1cc(Nc2cccn([C@@H]3CCC[C@@H](O)C3)c2=O)nc2c(C(=O)N[C@H]3CC[C@@H]3OC)cnn12 [I-1129] | – | – | – | 1 to 10 nM | Tyk2 JH1% Inhibition @ 10 μM (Tyk2 kinase domain (DH1)): A (percent inhibition at 10 μM lower than 50); JAK2 JH1% Inhibition @ 10 μM (JAK2 kinase domain (JH1)): A (percent inhibition at 10 μM lower than 50) |
| CNc1cc(Nc2cccn([C@@H]3CCC[C@@H](O)C3)c2=O)nc2c(C(=O)N[C@@H]3CC[C@H]3OC)cnn12 [I-1130] | – | < 50% | < 50% | < 0.2 nM | – |
